Experimental data: a melting point compilation (Tetko et al.; mined from patent text by program, amines drawn as free bases though some values may be those of a salt)

`COc1ccc([C@@H]2Sc3ccccc3N(CCN(C)C)C(=O)[C@@H]2O)cc1` (relative stereo) showed a melting point of 88 to 90 °C. Work on `Cc1c(-c2cccnc2)n(CCCCc2nnn[nH]2)c2ccccc12` yielded a melting point of 177 to 179 °C. Work on `CN(C(=O)c1ccc(Cn2cnc3ccccc32)cc1)[C@@H]1CCNC1` yielded a melting point of 150 to 152 °C. `CCOC(=O)c1ncc2[nH]c3cccc(Oc4ncccn4)c3c2c1COC` showed a melting point of 96 to 98 °C. Work on `CCCc1c(OCCCC(=O)NCCCCCCc2cccnc2)ccc(C(C)=O)c1O` yielded a melting point of 69 to 71 °C. With `O=C(O)CCCC=C1SC[C@H]2[C@@H]1N(Cc1ccccc1)C(=O)N2Cc1ccccc1` the melting point was 79 to 82 °C. `CC1OC(=O)Nc2ccc(-c3cccc(F)c3)cc21` (stereo unspecified) gave a melting point of 160 to 161 °C. `CCCCCCCC(=O)N(C)Cc1cc(-c2ccc(C=C3SC(=O)NC3=O)cc2)ccc1OCc1ccccc1` gave a melting point of 158 °C. `COc1cc2c(CSCCN3CC=C(c4ccccc4)CC3)c[nH]c2cc1C(=O)O` showed a melting point of 168 to 171 °C. For `CCn1cc(CO)c(OCc2ccc(OCc3nc(-c4ccco4)oc3C)c(OC)c2)n1`, the melting point was 117 to 118 °C. Compound `C=CCOc1cc2c(cc1C)OC1(CC2(C)C)CC(C)(C)c2cc(OCC=C)c(C)cc2O1` has a melting point of 98 to 100 °C. Compound `CC(C)ON=C(C(=O)O)c1ccccc1` has a melting point of 59.5 °C. Compound `COc1ccc2c(Cc3c(Cl)cncc3Cl)nncc2c1C#CCCCc1ccccc1` has a melting point of 130 to 132 °C. Compound `Cc1n[nH]c2c1C(=O)CC(c1ccccc1Cl)C2` (stereo unspecified) has a melting point of 168 to 170 °C. With `Nc1c(-c2nc(-c3ccco3)n[nH]2)nnn1Cc1ccc(F)cc1` the melting point was 200 to 202 °C. Compound `NC(=O)c1ncn(CCCc2ccc(OCc3coc(/C=C/c4ccccc4)n3)cc2)c1C(N)=O` has a melting point of 194 to 195 °C. Work on `COC(=O)[C@@H]1NC(=O)[C@@H]1NC(=O)OC(C)(C)C` (relative stereo) yielded a melting point of 140 to 144 °C. `CCC1C(O)C2C3CCC(C(C)CCC(=O)O)C3(C)CCC2C2(C)CCC(O)CC12` (stereo unspecified) gave a melting point of 110 °C. With `Fc1cc(F)c2oc(CCC#Cc3ccccn3)nc2c1` the melting point was 93.5 to 94 °C. For `Cc1ccc(C(=O)Nc2c[nH]nc2C(=O)NCCC#N)o1`, the melting point was 135 to 137 °C. In the case of `CCCCc1nc(CO)c(C(=O)O)n1Cc1ccc(-c2ccccc2C(=O)O)cc1`, the melting point was 130 to 140 °C. With `CC(C)N1CCC(C2=C(C#N)C(c3cccc4nonc34)c3c[nH]nc3N2)CC1` (stereo unspecified) the melting point was 260 °C. `CCOC(=O)Cc1csc2nc(C(=O)OC)cn12` showed a melting point of 152 to 154 °C. `CC1(C)OC(=O)C(c2ccc(-c3cscn3)cc2)=C1c1ccc(S(C)(=O)=O)cc1` showed a melting point of 216 °C. Compound `CCCC1=C(C#N)S(=O)(=O)c2ccc(C(F)(F)F)cc2N1` has a melting point of 200 °C. `CCOC(=O)C(F)(F)C(O)C(CC(C)C)NC(=O)OC(C)(C)C` (stereo unspecified) gave a melting point of 72 to 76 °C. `CCn1cc(C(=O)NC2Cc3ccccc3C2)c(=O)c2cnc(N3CCCC3)nc21` gave a melting point of 252 to 253 °C. `CCOC(=O)c1nnc2c3ccc(Cl)cc3c(-c3ccccc3)nn12` showed a melting point of 266 to 268 °C. For `CN1CCN(c2ccc(Nc3ncc4ccc(Nc5ccccc5)n4n3)cc2)CC1`, the melting point was 152 to 157 °C. `NC(=O)c1[nH]c2ccccc2c1Cl` showed a melting point of 191 to 192 °C. `O=C(c1ccccc1)c1cc(Cc2ccccc2)c(O)c2ccccc12` gave a melting point of 152 to 155 °C. With `CCC(=O)c1c(OC)cccc1OC` the melting point was 43 to 45 °C. Compound `CC(C)(C)[Si](C)(C)O[C@H]1CCNC1=O` has a melting point of 48 to 49 °C. Compound `COC(=O)c1c(C)cn2cc(OCc3ccccc3)ccc12` has a melting point of 143 °C. `Cc1cc2c(nc3n2CCC3)c([N+](=O)[O-])c1Br` showed a melting point of 201 to 203 °C. Compound `O=C1CCC2=C1C(c1ccc(Br)s1)C1=C(CCS1)N2` (stereo unspecified) has a melting point of 246 to 247 °C. `CCOC(=O)c1cc2c(C(F)(F)F)cc(CO)cc2n1C` gave a melting point of 158 to 159 °C. `O=C(O)c1cn(C2CC2)c2c(F)c(N3Cc4cccc(O)c4C3)c(F)cc2c1=O` gave a melting point greater than 300 °C. Compound `Cc1cc2c3c(ccc(N4CCCC4)c3c1)C(=O)N(O)C2=O` has a melting point of 236 to 237 °C. `CC(=O)Nc1ccc(N=O)cc1` gave a melting point of 179 to 180 °C. With `Cc1ccc(CO)cc1NC(=O)CC12CC3CC(CC(C3)C1)C2` the melting point was 190 °C. Compound `Cc1ccc(S(=O)(=O)Oc2cccc3c2CCCN3)cc1` has a melting point of 112 to 113 °C. In the case of `CC1(C(=O)O)CC1(F)F` (stereo unspecified), the melting point was 59 to 61 °C. Work on `Cc1nn(-c2ccccn2)c2c1c(=O)c1ccccc1n2C` yielded a melting point of 192 to 193 °C. `CCN1C=C(N)N=C(C2CC2)c2ccccc21` showed a melting point of 93 to 95 °C. With `NC(=CC(=O)c1ccccn1)C1CC1` the melting point was 145 to 150 °C. In the case of `COc1cc2c(cc1OC)CCCCC(C(=O)N1CCN(C(=O)c3cc(OC)c(OC)c(OC)c3)CC1)=C2`, the melting point was 170 to 171 °C. In the case of `CNC(=O)CC(SC(=O)c1ccccc1)C(CC(C)C)C(=O)NC(Cc1ccc(OC)cc1)C(=O)NC` (stereo unspecified), the melting point was 140 to 144 °C. Work on `O=C(O)c1ccc2oc(COCc3ccccc3)cc2c1` yielded a melting point of 129 to 132 °C. Work on `COc1cc(Nc2ncc3c(n2)-c2ccccc2CCC3)cc(OC)c1OC` yielded a melting point of 201 to 202 °C. `C#Cc1ccc2c(=O)c(C(=O)OCC)cn(-c3ccc(F)cc3)c2c1` showed a melting point of 227 to 229 °C. Work on `CC(=NNC(=O)c1ccccc1)c1cccc(Cl)c1O` yielded a melting point of 202 to 203 °C. For `Cc1cc(CN2CCN(c3ccc(C(=O)NC4CC4)cc3Cl)CC2)cc2c1OC(C)C(=O)N2` (stereo unspecified), the melting point was 252 to 255 °C. Work on `Cc1cc2c(c(C)c1C)C(C)(C)CCC2(C)C` yielded a melting point of 79 to 82 °C. `CC1CC(=O)C=C2C=CC3C4CCC(=O)C4(C)CCC3C21C` (stereo unspecified) gave a melting point of 171 °C. Work on `O=c1ccn([C@H]2C=C[C@@H](O)C2)c(=O)[nH]1` (racemic) yielded a melting point of 163 to 164 °C. `CN=C1CSc2ccccc2CN1` gave a melting point of 278 to 280 °C. For `CCCCC[C@H]1CC[C@H](C(=O)Oc2ccc(OC(F)F)cc2)CC1`, the melting point was 54 °C. For `CCC(=NOCc1ccc(Cl)cc1)c1cc(Cl)ccc1N(C(C)=O)S(=O)(=O)C(F)(F)F`, the melting point was 64 to 66 °C. For `COc1ccc([C@@H]2Sc3cc(Oc4ccc5c(c4)OCO5)ccc3NC(=O)[C@@H]2O)cc1`, the melting point was 188 °C. For `COc1cc2c3ccc(OC)c(OC)c3n(S(=O)(=O)c3ccc([N+](=O)[O-])cc3)c2cc1OC`, the melting point was 188 to 189 °C. For `N#CCCCOc1ccc(-c2nnc(CSCCOc3ccccc3)o2)cc1`, the melting point was 67 to 68 °C. `C[C@@H](n1cnc2cc(N(C)C)ccc2c1=O)[C@](O)(Cn1cncn1)c1ccc(F)cc1F` showed a melting point of 201 °C. Work on `COc1ccc(C(=O)c2ccccn2)cc1` yielded a melting point of 96 to 98 °C. For `COc1ccc(C2(C)CNC(=O)O2)cc1OC(C)C` (stereo unspecified), the melting point was 67 to 69.5 °C. `COc1ccccc1NC(=O)Nc1nc(Oc2ccc3ccccc3c2)nc(N(C)CCC(=O)O)n1` showed a melting point of 178 to 180 °C. `Cc1nn(CCC(C)C)c(C)c1CC(=O)O` gave a melting point of 135 to 136 °C. For `COc1cccc(CC(=O)O)c1OCCCc1cc(OC(C)C)nn1Cc1c(F)cccc1Cl`, the melting point was 97 to 98 °C. `Cc1cc([N+](=O)[O-])c(Cl)c([N+](=O)[O-])c1CBr` showed a melting point of 115 to 120 °C. Compound `COc1ccc(CC(=O)c2ccc(OCc3ccccc3)cc2)cc1` has a melting point of 147 to 148 °C. `CCOC(=O)CC1(c2ccccc2)CCN(C(c2ccccc2)(c2ccccc2)c2ccccc2)CC1` showed a melting point of 120 °C. With `NC(=O)[C@@H]1[C@H]2CC[C@H](C2)[C@@H]1Nc1nc(Nc2ccc3c(c2)CCC(NCC(F)(F)F)CC3)ncc1Cl` (stereo partly specified) the melting point was 218 °C. `O=c1ccc(-c2c(-c3ccccc3)nn3ccccc23)nn1Cc1nccs1` gave a melting point of 130 to 132 °C. In the case of `O=C(Nc1ccc(O)cc1)C1CCCCC12OCCO2` (stereo unspecified), the melting point was 173 to 174 °C. `CC(C)c1cc(CC2SCNC2=O)cc(C(C)C)c1O` (stereo unspecified) showed a melting point of 136 to 139 °C. Work on `O=C(O)CCCC(=O)Nc1cccc(-c2ccnc3c(C(=O)c4cccs4)cnn23)c1` yielded a melting point of 189 to 190 °C. `O=C(O)CNC(=O)C(S)Cc1ccccc1` (stereo unspecified) gave a melting point of 55 to 58 °C. `CC1NC(=O)NN=C1c1ccc(NCc2cccnc2)cc1` (stereo unspecified) gave a melting point of 254 to 256 °C. In the case of `O=c1ccn(-c2ccccc2)nc1-c1ccnn1-c1ccccc1`, the melting point was 179 to 180 °C. With `CN(C)c1ccc(NC(=O)N(Cc2ccccc2)C[C@@H]2CCCC[C@H]2CN(Cc2ccccc2)C(=O)Nc2ccc(N(C)C)cc2)cc1` (relative stereo) the melting point was 109 to 113 °C. `CCCCCCCCOc1ccc2cc(C(=O)O)ccc2c1` showed a melting point of 150 to 153 °C. `COCCNS(=O)(=O)c1ccc(Nc2nc(OCC3CCCCC3)c3nc[nH]c3n2)cc1` gave a melting point of 120 to 122 °C. `CC(=Cc1ccc(Oc2ccc(Cl)cc2)cc1)[N+](=O)[O-]` showed a melting point of 69 to 71 °C. In the case of `CC1=CC(=O)C(C(=O)Cc2ccccc2)C(=O)O1` (stereo unspecified), the melting point was 150 to 151 °C. Work on `CCCCCCOC(=O)CS(=O)(=O)Nc1c(C(C)C)cccc1C(C)C` yielded a melting point of 66 to 68 °C. In the case of `CCN(CC)C(=O)/C=C/CSc1nc(N)cc(Cl)n1`, the melting point was 143 to 145 °C. Compound `CCOc1cc2c(=O)[nH]cnc2cc1OC(C)C` has a melting point of 204 to 205 °C. For `Cc1cc(-c2nnn(C)n2)cc(C)c1OCCCC(O)c1cc2cccnc2[nH]1` (stereo unspecified), the melting point was 166 to 169 °C. `COc1nccc2c1C(C)(O)c1c([nH]c3ccncc13)C2(C)O` (stereo unspecified) showed a melting point greater than 250 °C. `O=C(C=Cc1cccc(F)c1F)c1cnc2sc3c(n12)CCCCC3` gave a melting point of 193 to 195 °C. In the case of `COc1cc(C)nc(NC(=O)NS(=O)(=O)N(C)S(C)(=O)=O)n1`, the melting point was 118 to 120 °C. Compound `COC(=O)CCCC#Cc1cc(Cl)ccc1NS(=O)(=O)c1ccc2nc(C)sc2c1` has a melting point of 103 to 106 °C. For `OCc1cccc2c1CCc1ccsc1-2`, the melting point was 99 to 100 °C. `CCCNC(=O)C1c2ccccc2-c2ccccc21` showed a melting point of 197 to 199 °C. Compound `COc1cc(N)c(Cl)cc1C(=O)N(C)OC` has a melting point of 134 to 135 °C. With `CCCn1ccc2c(c1=O)C(c1cccc(Cl)c1Cl)C(C(=O)OCC)=C(C)N2` (stereo unspecified) the melting point was 264 to 265 °C. For `O=C1c2cc(CCCCOC(=O)C(F)(F)F)ccc2OCc2ccsc21`, the melting point was 65.5 to 67 °C. Compound `O=C1CC(C(F)(F)F)CC(=O)N1c1cc(OCC=C(Cl)Cl)c(Cl)cc1F` has a melting point of 106 to 108 °C. `CCn1c(=O)c2[nH]c(/C=C/c3ccc(Br)cc3)nc2n(CC)c1=O` gave a melting point greater than 270 °C. In the case of `O=C(Nc1cccc(-n2ccnc2)c1)c1ccn(-c2ccccc2)c1`, the melting point was 100 to 103 °C. For `OC(CCl)CNc1nc2ccnc(-c3cccc(C(F)(F)F)c3)n2n1` (stereo unspecified), the melting point was 141 to 142 °C.
